# Reference: patent publication US12090164B2, “Genotype-agnostic rescue of cystic fibrosis with small molecule bicarbonate channels” (The Board of Trustees of the University of Illinois, priority 2017, dated 2024)
# “Also recorded” adds a separate entry of the source.
# What was measured:
# [1] = aerosolized NaHCO3; cited from earlier work
# CuFi-1 epithelia = assay: ASL height by confocal microscopy; assay type: cell-based, human
# Description: (§1) ASL height was studied using an established fluorescent dye assay (60, 61). Small diameter NuLi and CuFi-1 cultured epithelia were used for this experiment (0.33 cm^2). 24 hours prior to the start of experiment, the apical side of all cultured epithelia was rinsed three times with warm PBS to remove excess mucus. NuLi epithelia were treated with perfluorocarbon (FC-72) vehicle or 500 µM basolateral bumetanide in DMSO vehicle applied to the media, and CuFi epithelia were treated with 20 μL vehicle, 0.005, 0.5, or 50 μM AmB, or 0.5 μM C35deOAmB suspended in perfluorocarbon (FC-72, Sigma), with or without 500 μM basolateral bumetanide in DMSO vehicle applied to the media and incubated for 24 hours at 37° C. After 24 hours, 2.5 μL of a 2 mg/mL 70 kDa Texas Red-dextran conjugate (Molecular Probes) solution in PBS was added to the apical side of the epithelia, followed by 100 μL of FC-770 to prevent evaporation. Then the culture support was placed on top of 100 μL of PBS on a 10 mm glass bottom Fluorodish for imaging (World Precision Instruments). Epithelia were imaged immediately after dye addition and again at 24 hours to examine dye absorption. Three Z-stack images per membrane were taken on an Zeiss LSM700 confocal microscope at 40× oil immersion. These images were analyzed using ImageJ (62) to determine the average ASL height in the center 1300 pixels of each image. Images were smoothed, converted to 8-bit, and thresholded to most accurately represent the red area. The parameters for Analyze Particles were particles from 1-Infinity μm^2 in size and from 0%-100% circularity. Height was determined by dividing the area output in pixels by the known 1300 pixel width and converted to microns using the known scaling factor of 0.49 µm/pixel.
# NuLi epithelia = assay: ASL height by confocal microscopy; assay type: cell-based, human; conditions: bumetanide 500 μM
# Description: as §1
# [2] = system: CuFi-1 (ΔF508/ΔF508) epithelia; assay: ASL pH in cultured CF airway epithelia (SNARF-dextran); assay type: cell-based, human; conditions: for ASL pH, apical addition: AmB or C35deOAmB 2 μM, ivacaftor/forskolin 10 μM, 2 h, vs vehicle
# Description: (§2) Small diameter NuLi, CuFi, and primary cultured epithelia were used for this experiment (0.33 cm^2). The ratiometric pH indicator SNARF-conjugated dextran (Molecular Probes) was used to measure ASL pH. SNARF powder was suspended via sonication in perfluorocarbon (FC-72, Sigma) and distributed onto the apical surface. ASL pH was measured 2 hr later (3, 4, 25). SNARF was excited at 488 nm and emission was recorded at 580 nm and 640 nm using a Zeiss LSM 800 microscope at 40× water immersion for cell line cultures and a Zeiss LSM 510 microscope for primary cultures. To generate a standard curve for pH determination, SNARF was dissolved in colorless pH standards and fluorescence ratios were converted to pH.
# (§3) Agents tested in this assay were first lyophilized into powder and then suspended in the appropriate volume of perfluorocarbon (FC-72, Sigma) and sonicated for 1 minute to suspend. AmBisome should not be sonicated; instead, the fine powder was suspended by vortexing.
# (§4) In all experiments, ASL pH of compound-treated epithelia was measured compared the results to vehicle-treated epithelia.
# (§5) For apical AmB administration, cultured airway epithelia were incubated for 30 min-48 hrs at 37° C. before measurement of ASL pH. For AmB-cholesterol complex and C35deOAmB administration, cultured airway epithelia were incubated for 48 hrs at 37° C. before measurement of ASL pH. To test the effect of […] ATPase inhibition, AmB was administered 47 hours prior to 10 mM ouabain addition, and cultured airway epithelia were incubated for an additional 1 hr at 37° C. before measurement of ASL pH. For 10 μM ivacaftor/10 μM forskolin administration, cultured airway epithelia were incubated for 2 hrs at 37° C. before measurement of ASL pH (25). For basolateral AmB administration, a 2 mM stock of AmB in DMSO was diluted 1000-fold to a final concentration of 2 μM in USG media. The basolateral media of cultured airway epithelia was replaced with the AmB-containing USG media and incubated for 48 hrs at 37° C. before measurement of ASL pH.
# [3] = system: CuFi-4 (G551D/ΔF508) epithelia; assay: as above; assay type: cell-based, human
# Description: as §2, §3, §4, §5
# [4] = system: CuFi-1 (ΔF508/ΔF508) epithelia; assay: Basolateral to apical H14CO3- transport; assay type: cell-based, human; conditions: for basolateral to apical H^14CO3^− transport, apical addition: over 10 minutes, AmB or C35deOAmB 2 μM, ivacaftor/forskolin 10 μM
# Description: (§6) Small diameter NuLi and CuFi cultured epithelia were used for this experiment (0.33 cm^2). ^14C-labeled sodium HCO3^− was obtained as a sterile 35.7 mM aqueous solution pH 9.5 (MP Biomedicals 0117441H). All experiments were run less than 2 months post seeding. Fresh USG media was added to the basolateral side prior to experimentation. The apical membrane was treated with 20 μL of vehicle, AmB, or ivacaftor/forskolin as a suspension in perfluorocarbon-72 (Sigma Aldrich), and the cultured epithelia were incubated for 48 hours, 7 days, 14 days, or 28 days at 37° C. in a 5% C02 atmosphere. After the end of the treatment period, 5 μL of a 1.4 mM H^14CO3^− stock solution in USG media was added to the basolateral media. The cultured epithelia were then incubated at 37° C. for 10 minutes. After 10 minutes, the apical membrane of the cultured epithelia was immediately washed with 200 μL of PBS. The ASL wash and a 200 μL aliquot of the basolateral media were diluted in scintillation cocktail and analyzed via liquid scintillation counting (23).
# [5] = system: CuFi-4 (G551D/ΔF508) epithelia; assay: Basolateral to apical H14CO3- transport; assay type: cell-based, human; conditions: AmB 2 μM, ivacaftor/forskolin 10 μM
# Description: as §6
# [6] = system: primary sinonasal epithelia from a patient with a G551D mutation; conditions: relative to untreated controls; cited from earlier work
# [7] = system: CF patients having at least one G551D allele; conditions: clinical trials; cited from earlier work
# V520F allele = V520F allele (Homo sapiens, UniProt P13569, V520F); conditions: V520F allele (D259G/V520F); cited from earlier work
# [8] = system: CF epithelia that lack a G551D or similar allele; conditions: cited from earlier work
# [9] = system: CuFi-1 (ΔF508/ΔF508) airway epithelia; assay: Ussing chamber permeabilization of differentiated CF airway epithelia; assay type: cell-based, human; conditions: differentiated CuFi-1 epithelia
# Description: A series of natural products and synthetic compounds reported previously to permeabilize liposomes, cells, and/or nasal epithelia of mice to anions (11-14) were tested using an Ussing chamber and differentiated cultures of airway epithelia derived from an immortalized airway epithelial cell line from a CF patient having the most common ΔF508/ΔF508 genotype (CuFi-1) (15). […] The capacity for AmB and C35deOAmB to transport bicarbonate across cholesterol-containing POPC liposomes was tested using an adapted ^13C NMR-based assay (18).
# [10] = system: primary cultured airway epithelia derived from humans with CF; assay: ASL pH in primary cultured airway epithelia from CF donors; assay type: cell-based, human; conditions: 9 donors, 2 μM, 48 h
# Description: Airway epithelial cells were obtained from human trachea and bronchi of CF and non-CF specimens obtained from the Iowa Donor Network, either as post-mortem specimens or from tissue deemed not fit for transplant. Studies were approved by the University of Iowa Institutional Review Board. After pronase enzymatic digestion, cells were seeded onto collagen-coated semi-permeable membranes (0.33-1.12 cm^2, Corning 3470 polyester, 3460 polyester, 3413 polycarbonate) and grown at an air-liquid interface (52). Airway epithelial cell cultures were analyzed after they had differentiated and at least 14 days post-seeding.
# as §2, §3, §4, §5
# [11] = system: ASL of primary CF epithelia; Staphylococcus aureus killed; assay: ASL antibacterial activity (S. aureus-coated gold grids); assay type: cell-based, human; conditions: 2 μM, 48 h
# Description: Staphylococcus aureus-coated gold grids were used to measure antibacterial activity of airway epithelial cultures (3, 4). Small diameter primary cultured epithelia were used for this experiment (0.33 cm^2). Bacteria-coated gold TEM grids were placed onto the apical surface of airway epithelia for 1 min after 48 hours of perfluorocarbon (FC-72, Sigma), 2 μM AmB, or 2 μM C35deOAmB treatment. As controls, bacteria-coated grids were also placed in saline or AmB in FC-72 laid over saline to simulate the administration method for 1 minute. After removal, bacteria on the grids were assessed for viability using Live/Dead BacLight Bacterial Viability assay (Invitrogen). Viability was determined in 4-6 fields to determine the percentages of dead bacteria.
# [12] = system: protein ion channel-deficient yeast; conditions: cited from earlier work
# yeast = conditions: cited from earlier work
# V520F allele, sequence (P13569 whole entry V520F): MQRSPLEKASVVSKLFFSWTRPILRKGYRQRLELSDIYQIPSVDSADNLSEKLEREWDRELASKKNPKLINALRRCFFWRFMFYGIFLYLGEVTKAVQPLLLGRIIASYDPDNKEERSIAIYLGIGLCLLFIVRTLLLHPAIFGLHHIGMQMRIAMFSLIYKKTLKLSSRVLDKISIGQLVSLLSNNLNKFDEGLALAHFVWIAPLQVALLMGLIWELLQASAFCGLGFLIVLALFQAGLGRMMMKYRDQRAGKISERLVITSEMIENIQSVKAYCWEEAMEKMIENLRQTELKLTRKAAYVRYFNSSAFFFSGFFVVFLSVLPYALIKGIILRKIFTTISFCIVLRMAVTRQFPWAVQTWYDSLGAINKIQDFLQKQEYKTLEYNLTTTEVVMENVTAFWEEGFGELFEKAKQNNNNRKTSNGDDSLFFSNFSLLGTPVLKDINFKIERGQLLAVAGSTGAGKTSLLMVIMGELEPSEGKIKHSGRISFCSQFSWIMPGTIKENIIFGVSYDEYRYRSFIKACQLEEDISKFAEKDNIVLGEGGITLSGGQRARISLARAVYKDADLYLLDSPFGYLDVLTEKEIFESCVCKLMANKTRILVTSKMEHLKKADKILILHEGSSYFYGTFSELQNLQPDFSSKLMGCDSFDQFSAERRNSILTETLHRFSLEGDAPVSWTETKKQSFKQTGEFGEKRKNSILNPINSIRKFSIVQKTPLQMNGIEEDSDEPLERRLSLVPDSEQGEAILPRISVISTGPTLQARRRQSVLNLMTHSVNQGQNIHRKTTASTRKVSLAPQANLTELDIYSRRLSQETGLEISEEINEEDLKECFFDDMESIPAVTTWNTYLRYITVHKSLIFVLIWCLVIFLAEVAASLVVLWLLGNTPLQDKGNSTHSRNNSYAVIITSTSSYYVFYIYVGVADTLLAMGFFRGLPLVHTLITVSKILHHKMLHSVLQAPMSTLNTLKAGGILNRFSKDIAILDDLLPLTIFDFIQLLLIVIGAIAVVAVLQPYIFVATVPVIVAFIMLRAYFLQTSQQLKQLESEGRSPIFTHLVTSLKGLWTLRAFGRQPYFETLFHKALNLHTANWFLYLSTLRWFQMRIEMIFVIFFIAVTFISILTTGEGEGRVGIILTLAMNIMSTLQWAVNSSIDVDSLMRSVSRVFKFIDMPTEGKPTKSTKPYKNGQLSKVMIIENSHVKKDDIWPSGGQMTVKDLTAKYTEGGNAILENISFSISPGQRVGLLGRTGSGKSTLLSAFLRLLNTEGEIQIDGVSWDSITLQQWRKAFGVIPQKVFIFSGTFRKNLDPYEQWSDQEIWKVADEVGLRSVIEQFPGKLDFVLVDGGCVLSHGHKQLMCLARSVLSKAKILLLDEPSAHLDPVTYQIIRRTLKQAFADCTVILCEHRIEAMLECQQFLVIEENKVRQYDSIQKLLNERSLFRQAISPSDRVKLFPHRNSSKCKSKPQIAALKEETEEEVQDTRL
compound,measurement,setting,value
O=C([O-])O.[Na+] [NaHCO3],duration of transient increase in pH,[1],~15 minutes
CCCCNc1cc(C(=O)O)cc(S(N)(=O)=O)c1Oc1ccccc1 [bumetanide],effect of basolateral bumetanide on AmB-mediated increase in ASL height,CuFi-1 epithelia; bumetanide 500 μM,abolished the AmB-mediated increase in ASL height
same,ASL height after basolateral bumetanide,NuLi epithelia,decreased ASL height in NuLi epithelia
CC(C)(C)c1cc(C(C)(C)C)c(NC(=O)c2c[nH]c3ccccc3c2=O)cc1O [ivacaftor],"ASL pH, apical addition",[2],showed no increase in ASL pH
same,"ASL pH, apical addition",[2]; listed as Ivacaftor,failed to increase ASL pH or H^14CO3^− secretion
same,"ASL pH, apical addition",[2]; listed as ivacaftor/forskolin,an increase in ASL pH was not observed
same,increase in ASL pH,"[3]; AmB 2 μM, ivacaftor/forskolin 10 μM",0.2 unit
same,ASL pH,"[3]; apical AmB 2 μM 48 h, ivacaftor/forskolin 10 μM 2 h",increase ASL pH
same,"basolateral to apical H^14CO3^− transport, apical addition",[4]; listed as Ivacaftor,failed to increase ASL pH or H^14CO3^− secretion
same,"basolateral to apical H^14CO3^− transport, apical addition",[4]; listed as ivacaftor/forskolin,did not
same,H^14CO3^− transepithelial transport,[5],increased the rate of bicarbonate efflux
same,H^14CO3^− transepithelial transport,[5]; listed as ivacaftor/forskolin,increase H^14CO3-transepithelial transport
same,decrease in viscosity,[6],about 1.5 units
same,increase in ASL pH,[6],0.20 units
same,increase in forced expiratory volume,[7],10%
same,other clinical outcomes,[7],"substantially improved body weight, quality of life, and incidence of pulmonary exacerbation; also recorded: improved FEV1"
same,response to ivacaftor,V520F allele,refractory to treatment with ivacaftor
same,benefit in CF epithelia without G551D,[8],does not show benefit in CF epithelia that lack a G551D or similar allele
C[C@@H]1O[C@@H](O[C@H]2C[C@@H](O)[C@]3(CO)[C@H]4[C@H](O)C[C@]5(C)[C@@H](C6=CC(=O)OC6)CC[C@]5(O)[C@@H]4CC[C@]3(O)C2)[C@H](O)[C@H](O)[C@H]1O [ouabain],effect of basolateral ouabain on AmB-mediated increase in ASL pH,"[2]; AmB 2 μM 48 h, ouabain 10 mM",abrogated; also recorded: abolished
same,effect of basolateral ouabain on AmB-mediated increase in H^14CO3^− transport,"[4]; AmB 2 μM, ouabain 10 mM",abrogated; also recorded: abolished
C35-deoxyamphotericin B [C35deOAmB],change in short circuit current / permeabilization of epithelia,[9],Little or no permeabilization
same,"ASL pH, apical addition",[2],an increase in ASL pH was not observed; also recorded: No increase in pH was observed; also recorded: did not raise ASL pH or increase H^14CO3^− secretion
same,"basolateral to apical H^14CO3^− transport, apical addition",[4],did not; also recorded: caused no increase ASL ^14C bicarbonate; also recorded: did not raise ASL pH or increase H^14CO3^− secretion
same,"ASL pH, apical addition",[10],did not increase ASL pH
same,ASL antibacterial activity (% of S. aureus killed after exposure to ASL),[11],had no effect
same,"ASL height, apical addition",CuFi-1 epithelia; 0.5 μM,did not increase ASL height
same,yeast growth rescue,[12],failed to rescue yeast growth at any tested concentration; also recorded: did not
same,toxicity / fungicidal activity to yeast,yeast,still maintains potent fungicidal activity
